Experimental data from patent US6492174B1, “Methods of initiating embryogenic cultures in plants” (Institute of Paper Science & Technology, priority 2000, dated 2002).

Legend:
[1] = test system: cultured cells of Onosma paniculatum; details: media containing 0.01 ppb brassinolide; cited from earlier work
[2] = test system: Loblolly pine megagametophytes; assay: Elevated pressure in combination with brassinolide, ABA pre-soak or liquid media #1038, 8 weeks; format: cell-based; details: for % Megagametophytes Extruding / % Megagametophytes Initiating: Br 0.1 μM in media #1042, ABA soak 5 ppm 30 minute
Method: The previous examples indicate that elevated pressure can enhance extrusion and initiation. This experiment was designed to test the effect of elevated pressure in combination with other treatments to determine the optimal conditions for promoting extrusion and initiation.
Megagametophytes in some treatments received a 30 minute pre-culturing soak in liquid media (#1042 minus the gelling agent) containing 5 ppm ABA. Megagametophytes in Treatments 9 and 10 were fully immersed in liquid media #1038. The experiment consisted of three replications per treatment, per genotype.
Five different treatments were used, each cultured under 1.0 or 1.5 atmospheres for a total of ten treatments (See Table 33).
After 8 weeks culturing, the treatments were scored. Extrusion and initiation were increased by elevated pressure in all treatments.

[3] = test system: Norway spruce zygotic embryos; assay: Norway spruce initiation on solid media #56 with ABA, brassinolide or elevated pressure, ten weeks; format: cell-based; details: 0.1 pM brassinolide added to medium #56
Method: Explants were zygotic embryos flipped out of the megagametophyte, prepared as in Example 1. The experiment consisted of five replications, with a replication consisting of ten explants in a single petri dish. Explants were cultured on solid media #56 (Table 3). Treatment #1 consisted of explants on media #56. In Treatment #2, the medium additionally contained 1 ppm ABA. In Treatment #3, the media contained […] brassinolide. In Treatment #4, the explants were cultured under 1.5 atmospheres of pressure. After ten weeks, the explants were examined and the frequency of embryogenic culture initiation was scored (Table 43).

[4] = test system: Loblolly pine megagametophytes; assay: 30 minute abscisic acid soaking pre-treatment, culture on solid media #1042 with or without 0.1 μM brassinolide, eight weeks; format: cell-based; details: 0 ppm ABA/ +Br (0.10 μM)
Method: In this experiment, the effects of ovule pre-treatment by soaking with abscisic acid solutions of varying concentration was investigated. The abscisic acid treatment was tested on two media, one containing brassinolide and one lacking in brassinolide. The explants were megagametophytes from open pollinated summer cones of four individual trees, representing a multiplicity of genotypes. The seeds contained Stage 2-4 zygotic embryos. Megagametophytes were excised from sterilized seeds, as described in Example 4.
Prior to culturing, the megagametophytes were soaked for 30 minutes in liquid growth media (media #1042, Table 47, minus the gelling agent) containing 0, 5, 10 and 20 ppm abscisic acid. After soaking, the megagametophytes were placed on either one of two solid growth media. While still liquid, 2 ml media was poured into wells on a culture well plate and allowed to solidify. Half the soaked megagametophytes were placed on solid media #1042 (Table 47) and half were placed on solid media #1042 with 0.1 μM brassinolide added.
On solid media where brassinolide was present, there was a dramatic difference in extrusion and initiation between megagametophytes soaked in zero and 5 ppm ABA solutions (Treatments #5 and #6) compared to those soaked in 10 and 20 ppm ABA solutions (Treatments #7 and #8). […] In contrast, megagametophytes treated with higher amounts of ABA in Treatments 7 and 8 had the highest initiation frequencies of any treatment. […] Alternatively, there may have been an interaction between brassinolide and ABA such that low ABA plus brassinolide inhibits extrusion, with this inhibition overcome when ABA concentration is higher.

[5] = test system: Douglas fir stage 3-5 zygotic embryos attached to megagametophytes; assay: Douglas fir initiation on solid media #121 with brassinolide, ABA, ABA pre-soak or elevated pressure; format: cell-based; details: +0.1 μM Br in media #121
From the text: The explants used in this experiment were isolated from Douglas fir cones collected in mid-summer from four open-pollinated trees, representing a multiplicity of genotypes. Explants were stage 3-5 (early-midstage) zygotic embryos attached to megagametophytes, prepared as described in Example 2. The embryo and attached megagametophyte were then placed next to each other on the treatment media. As in Example 2, each replication consisted of ten explants in a single petri dish. Each treatment contained four replications per treatment, per genotype.
The treatment media were based on solid media #121, the composition of which is described in Table 5. Media #121 contains no ABA or brassinolide. Treatment #1, the control, consisted of explants cultured on media #121 alone. In Treatment #2, explants were cultured on media #121 containing 0.1 μM brassinolide. In Treatment #3, explants were cultured on media #121 containing 1 ppm ABA. In treatment #4, explants were soaked in liquid media containing 5 ppm ABA for 30 minutes prior to being placed on #121 media. In Treatment #5, explants were cultured on media #121 under 1.5 atmospheres of pressure. The petri dishes were wrapped in PARAFILM and incubated at 23-24° C. in the dark.

[6] = genotype 7-100, + Pressure 1.5 atm
[7] = genotype 11-1095, + Pressure 1.5 atm
[8] = genotype 21-6, + Pressure 1.5 atm

SMILES: CC(C)[C@H](C)[C@@H](O)[C@H](O)[C@@H](C)[C@H]1CC[C@H]2[C@@H]3COC(=O)[C@H]4C[C@H](O)[C@H](O)C[C@]4(C)[C@H]3CC[C@]12C [brassinolide]
- growth of cultured cells [1]: slightly increased growth
- % Megagametophytes Extruding ([2]; Total, 1.0 atm): 32.2%
- % Megagametophytes Initiating ([2]; Total, 1.0 atm): 24.2%
- % Megagametophytes Extruding ([2]; Total, + Pressure 1.5 atm): 55.9%
- % Megagametophytes Initiating ([2]; Total, + Pressure 1.5 atm): 38.7%
- increase of initiation frequency by pressure ([2]; Treatment #4 vs. #3): over 60%
- % Megagametophytes Extruding ([2]; genotype 7-100, 1.0 atm): 3.3 (3.3) %
- % Megagametophytes Initiating ([2]; genotype 7-100, 1.0 atm): 0.0 (0.0) %
- % Megagametophytes Extruding [2, 6]: 43.3 (8.8) %
- % Megagametophytes Initiating [2, 6]: 20.0 (5.8) %
- % Megagametophytes Extruding ([2]; genotype 11-1095, 1.0 atm): 56.7 (6.7) %
- % Megagametophytes Initiating ([2]; genotype 11-1095, 1.0 atm): 39.2 (11.6) %
- % Megagametophytes Extruding [2, 7]: 50.0 (21.7) %
- % Megagametophytes Initiating [2, 7]: 39.2 (18.6) %
- % Megagametophytes Extruding ([2]; genotype 21-6, 1.0 atm): 36.7 (6.7) %
- % Megagametophytes Initiating ([2]; genotype 21-6, 1.0 atm): 33.3 (8.8) %
- % Megagametophytes Extruding [2, 8]: 74.4 (12.4) %
- % Megagametophytes Initiating [2, 8]: 56.9 (13.7) %
- % Initiating (std. error) [3]: 46.2 (6.1) %
- % Megagametophytes Extruding ([4]; genotype 7-1051): 13.3 (6.7) %
- Embryogenic Culture Initiation - % Megagametophytes Extruding ([4]; genotype 7-1051): 0.0 (0.0) %
- % Megagametophytes Extruding ([4]; genotype M7-56): 3.3 (3.3) %
- Embryogenic Culture Initiation - % Megagametophytes Extruding ([4]; genotype M7-56): 0.0 (0.0) %
- % Megagametophytes Extruding ([4]; genotype TC5-1501): 0.0 (0.0) %
- Embryogenic Culture Initiation - % Megagametophytes Extruding ([4]; genotype TC5-1501): 0.0 (0.0) %
- % Megagametophytes Extruding ([4]; genotype TC11-109): 0.0 (0.0) %
- Embryogenic Culture Initiation - % Megagametophytes Extruding ([4]; genotype TC11-109): 0.0 (0.0) %
- % Megagametophytes Extruding ([4]; total): 4.2%
- Embryogenic Culture Initiation - % Megagametophytes Extruding ([4]; total): 0%
- % of Megagametophytes Initiating - Mean ([5]; genotype T0232l): 27.8%
- % of Megagametophytes Initiating - Mean ([5]; genotype T0235l): 21.8%
- % of Megagametophytes Initiating - Mean ([5]; genotype T0293l): 34.6%
- % of Megagametophytes Initiating - Mean ([5]; genotype T0525l): 30.0%
- % of Megagametophytes Initiating - Mean ([5]; total): 31.1%
